Reference: PMC11411704, “Gatekeeping Activity of Collinear Ketosynthase Domains Limits Product Diversity for Engineered Type I Polyketide Synthases” (Biochemistry, 2024)

Columns and labels:
[1] = target: T1, Plt module-1 (P1 PKS module-1) (Pseudomonas fluorescens, UniProt O51827); assay: diketide formation, extender unit competition assay; format: biochemical; settings: 4,5-dichloropyrrolyl-SNAC as ketide substrate; equimolar Mal-CoA and MeMal-CoA made with MatB; product diketide 6
T1 construct: gene pltB; module-1 only (KS-AT-CP) of the pyoluteorin PKS, wild-type AT; DEBS interdomain linkers used in the bimodular system; recombinant, purified; borders only in supplement
T1 sequence (O51827 1-1030 limits assumed): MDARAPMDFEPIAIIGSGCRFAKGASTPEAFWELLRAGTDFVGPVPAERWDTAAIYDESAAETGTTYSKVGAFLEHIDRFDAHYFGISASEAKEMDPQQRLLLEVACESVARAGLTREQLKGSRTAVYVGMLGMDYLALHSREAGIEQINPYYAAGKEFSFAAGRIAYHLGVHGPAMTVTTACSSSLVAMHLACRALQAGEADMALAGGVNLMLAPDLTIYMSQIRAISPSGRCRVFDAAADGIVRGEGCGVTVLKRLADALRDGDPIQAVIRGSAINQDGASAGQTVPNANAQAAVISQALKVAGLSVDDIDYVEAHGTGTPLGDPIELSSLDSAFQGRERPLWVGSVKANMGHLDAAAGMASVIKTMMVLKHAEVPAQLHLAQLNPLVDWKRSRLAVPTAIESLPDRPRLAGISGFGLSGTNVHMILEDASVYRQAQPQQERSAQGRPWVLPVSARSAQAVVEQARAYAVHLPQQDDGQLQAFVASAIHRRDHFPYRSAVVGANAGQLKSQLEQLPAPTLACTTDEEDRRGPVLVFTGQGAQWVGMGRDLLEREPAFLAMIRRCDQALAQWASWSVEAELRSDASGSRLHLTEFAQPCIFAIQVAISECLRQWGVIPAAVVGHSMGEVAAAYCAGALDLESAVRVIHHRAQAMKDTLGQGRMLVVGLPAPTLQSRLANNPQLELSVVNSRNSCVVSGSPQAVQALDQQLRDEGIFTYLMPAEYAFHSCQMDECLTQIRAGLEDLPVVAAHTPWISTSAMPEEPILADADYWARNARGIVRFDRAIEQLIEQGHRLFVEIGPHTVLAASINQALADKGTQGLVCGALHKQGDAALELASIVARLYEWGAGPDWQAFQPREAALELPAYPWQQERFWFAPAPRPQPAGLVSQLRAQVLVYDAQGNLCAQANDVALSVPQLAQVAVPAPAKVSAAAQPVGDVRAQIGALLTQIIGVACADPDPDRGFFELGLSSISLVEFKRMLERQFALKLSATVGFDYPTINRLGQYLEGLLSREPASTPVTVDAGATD

FabD = target: T2, FabD (Escherichia coli, UniProt P0AAI9); assay: carrier protein acylation under triketide pyrone production conditions; format: biochemical; settings: acceptor: PKS carrier protein domains
T2 sequence (P0AAI9 2-309): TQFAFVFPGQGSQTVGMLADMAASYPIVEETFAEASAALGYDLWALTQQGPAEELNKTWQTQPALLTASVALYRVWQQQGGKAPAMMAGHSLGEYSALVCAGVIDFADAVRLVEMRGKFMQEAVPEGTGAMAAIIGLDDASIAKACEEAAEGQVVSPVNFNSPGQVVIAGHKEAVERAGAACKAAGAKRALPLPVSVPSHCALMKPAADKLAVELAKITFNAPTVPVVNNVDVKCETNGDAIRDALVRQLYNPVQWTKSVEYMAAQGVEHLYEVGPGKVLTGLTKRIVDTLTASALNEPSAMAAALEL

SMILES	diketide formation, extender unit competition assay [1]	carrier protein acylation under triketide pyrone production conditions (FabD)
CC(C(=O)O)C(=O)SCCNC(=O)CCNC(=O)[C@H](O)C(C)(C)COP(=O)(O)OP(=O)(O)OC[C@H]1O[C@@H](n2cnc3c(N)ncnc32)[C@H](O)[C@@H]1OP(=O)(O)O (stereo partly drawn) [MeMal-CoA]	the Plt module-1 KS could efficiently use the MeMal extender unit for diketide production	
C#CCC(C(=O)O)C(=O)SCCNC(=O)CCNC(=O)[C@H](O)C(C)(C)COP(=O)(O)OP(=O)(O)OC[C@H]1O[C@@H](n2cnc3c(N)ncnc32)[C@H](O)[C@@H]1OP(=O)(O)O (stereo partly drawn) [PgMal-CoA]		FabD was also proficient in incorporating EtMal and PgMal extender units
CCC(C(=O)O)C(=O)SCCNC(=O)CCNC(=O)[C@H](O)C(C)(C)COP(=O)(O)OP(=O)(O)OC[C@H]1O[C@@H](n2cnc3c(N)ncnc32)[C@H](O)[C@@H]1OP(=O)(O)O (stereo partly drawn) [EtMal-CoA]		FabD was also proficient in incorporating EtMal and PgMal extender units
